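1) Cells in 96-well plates. 2) Compound, 48 h, 5 concentrations. 3) Linear interpolation between surrounding doses. 4) Unreached endpoint = highest concentration. GI50 = concentration required for 50% inhibition of growth.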 Activity calls are given as the source filed them. Cut-off read from the data, not from the text of the source: active = GI50 up to about 1.1 µM and inactive = higher.
Experiments:
Assay in all cases: DTP human tumour cell line panel, 48 h
U-251 = system: U-251
SNB-75 = system: SNB-75
DU-145 = system: DU-145
Hs-578T = system: Hs-578T
COLO 205 = system: COLO 205
PC-3 = system: PC-3
HCT-15 = system: HCT-15
M14 = system: M14
HOP-92 = system: HOP-92
BT-549 = system: BT-549
HCC 2998 = system: HCC 2998
TK-10 = system: TK-10
SF-295 = system: SF-295
A498 = system: A498
SR = system: SR
EKVX = system: EKVX
SK-OV-3 = system: SK-OV-3
SK-MEL-5 = system: SK-MEL-5
HCT-116 = system: HCT-116
SK-MEL-2 = system: SK-MEL-2

With `Cc1nc2c(o1)C(=O)c1ccccc1/C2=N/c1ccc(N2CCOCC2)cc1` the GI50 (U-251) was 3.52 µM (inactive), the GI50 (SNB-75) was 2.46 µM (inactive) and the GI50 (DU-145) was 3.31 µM (inactive). The GI50 (Hs-578T) was 3.22 µM (inactive), the GI50 (COLO 205) was 23.7 µM (inactive) and the GI50 (PC-3) was 2.08 µM (inactive). The GI50 (HCT-15) was 3.66 µM, the GI50 (M14) was 1.8 µM (inactive) and the GI50 (HOP-92) was 10.7 µM (inactive). The GI50 (BT-549) was 2.12 µM (inactive), the GI50 (HCC 2998) was 34.1 µM (inactive) and the GI50 (TK-10) was 48 µM (inactive). The GI50 (SF-295) was 2.52 µM (inactive), the GI50 (A498) was 18.7 µM (inactive) and the GI50 (SR) was 3.86 µM (inactive). The GI50 (EKVX) was 7.73 µM (inactive), the GI50 (SK-OV-3) was 37.8 µM (inactive) and the GI50 (SK-MEL-5) was 1.79 µM (inactive). For the same molecule, the GI50 (HCT-116) was 3.35 µM (inactive) and the GI50 (SK-MEL-2) was 2.75 µM (inactive).

Source: ChEMBL document CHEMBL1201862, “PubChem BioAssay data set” (2004)
